Source: patent US4337265A, “Cyclohepta[b]pyrrole derivatives” (Ayerst, McKenna & Harrison Inc., priority 1981, dated 1982)

Columns and labels:
aldose reductase [1] = target: T1, aldose reductase (Bos taurus, UniProt P16116); assay: in vitro aldose reductase inhibition (modified Hayman and Kinoshita procedure; enzyme from bovine lens); assay type: biochemical; details: read-out: % Inhibition At Different Molar Concentrations (in vitro); for inhibition at 10 µM: molar concentration 10^-5; for inhibition at 1 µM: molar concentration 10^-6; for inhibition at 0.1 µM: molar concentration 10^-7
T1 construct: preparation of the enzyme from bovine lens; from tissue; host or cells: bovine lens
Procedure: In the present case the procedure of Hayman and Kinoshita is modified in that the final chromatography step is omitted in the preparation of the enzyme from bovine lens. The following results were obtained when the foregoing listed compounds of formula I were evaluated in the above in vitro test.

aldose reductase [2] = details: literature report; cited from earlier work
[3] = hygroscopicity of the salt; assay type: physicochemical; details: disodium salt

inhibition at 10 µM (aldose reductase [1]) [%] | inhibition at 1 µM (aldose reductase [1]) [%] | inhibition at 0.1 µM (aldose reductase [1]) [%] | hygroscopicity [3] | SMILES | aldose reductase inhibition (in words) (aldose reductase [2])
85 | 52 | 11 | – | CC(=O)c1c2ccc(Cl)ccc-2n(CC(=O)O)c1=O [Example 11, 3-Acetyl-6-chloro-1,2-dihydro-2-oxocyclohepta[b]pyrrole-1-acetic Acid] | –
60 | 19 | – | – | CCc1c2cccccc-2n(CC(=O)O)c1=O [Example 8, 3-Ethyl-1,2-dihydro-2-oxocyclohepta[b]pyrrole-1-acetic Acid] | –
– | – | – | – | O=C(O)CN1C(=O)c2cccc3cccc(c23)C1=O [1,3-Dioxo-1H-benz[de]isoquinoline-2(3H)-acetic acid] | effective inhibitor of aldose reductase
73 | 28 | 7 | – | NC(=O)c1c2cccccc-2n(CC(=O)O)c1=O [Example 13, 3-(Aminocarbonyl)-1,2-dihydro-2-oxocyclohepta[b]pyrrole-1-acetic Acid] | –
80 | 45 | 9 | – | O=C(O)Cn1c2cccccc-2cc1=O [Example 3, 1,2-Dihydro-2-oxocyclohepta[b]pyrrole-1-acetic Acid] | –
85 | 78 | 36 | – | O=C(O)Cn1c2ccc(Cl)ccc-2c(C(=O)O)c1=O [Example 9, 3-Carboxy-6-chloro-1,2-dihydro-2-oxocyclohepta[b]pyrrole-1-acetic Acid] | –
93 | 85 | 47 | – | O=C(O)Cn1c2cccccc-2c(C(=O)O)c1=S [Example 5, 3-Carboxy-1,2-dihydro-2-thioxocyclohepta[b]pyrrole-1-acetic Acid] | –
88 | 82 | 44 | – | O=C(O)Cn1c2cccccc-2c(C(=O)O)c1=O [Example 2, 3-Carboxy-1,2-dihydro-2-oxocyclohepta[b]pyrrole-1-acetic Acid] | –
75 | 44 | 9 | – | CC(C)(C)C(=O)OCOC(=O)Cn1c2cccccc-2c(C(=O)OCOC(=O)C(C)(C)C)c1=O [Example 6, 1,2-Dihydro-3-[(2,2-dimethyl-1-oxopropoxy)methoxycarbonyl]-2-oxo-cyclohepta[b]pyrrole-1-acetic Acid (2,2-Dimethyl-1-oxopropoxy)methyl Ester] | –
76 | 26 | 3 | – | CC(=O)c1c2cccccc-2n(CC(=O)O)c1=O [Example 7, 3-Acetyl-1,2-dihydro-2-oxocyclohepta[b]pyrrole-1-acetic Acid] | –
73 | 26 | – | – | CCOC(=O)c1c2cccccc-2n(CC(=O)O)c1=O [Example 4, 3-(Ethoxycarbonyl)-1,2-dihydro-2-oxocyclohepta[b]pyrrole-1-acetic Acid] | –
– | – | – | hydroscopic | CN(CC(=O)O)C(=O)c1c2ccc(Cl)ccc-2n(CC(=O)O)c1=O [Example 15, 6-Chloro-3-[(N-carboxymethyl-N-methyl)amino]carbonyl-1,2-dihydro-2-oxocyclohepta[b]pyrrole-1-acetic Acid] | –
76 | 34 | 9 | – | CCOC(=O)c1c2ccc(Cl)ccc-2n(CC(=O)O)c1=O [Example 10, 6-Chloro-3-(ethoxycarbonyl)-1,2-dihydro-2-oxocyclohepta[b]pyrrole-1-acetic Acid] | –
88 | 82 | 48 | – | N#Cc1c2cccccc-2n(CC(=O)O)c1=O [Example 12, 3-Cyano-1,2-dihydro-2-oxocyclohepta[b]pyrrole-1-acetic Acid] | –
80 | 37 | 13 | – | O=C(O)C[n+]1cc(C(=O)O)c2cccccc1-2 [3-Carboxy-1-(carboxymethyl)-cyclohepta[b]pyrrolium Chloride] | –
– | – | – | – | O=C1NC(=O)[C@@]2(CCOc3ccc(F)cc32)N1 [sorbinil, (S)-6-Fluoro-2,3-dihydrospiro(4H-1-benzopyran-4,4'-imidazolidine)-2',5'-dione] | aldose reductase inhibiting properties
